Source: patent publication US12043632B2, “6-heteroaryloxy benzimidazoles and azabenzimidazoles as JAK2 inhibitors” (Ajax Therapeutics, Inc., priority 2020, dated 2024)

Target: T1, JAK2 (JH1domain-catalytic, Y1007F,Y1008F) kinase (Homo sapiens, UniProt O60674, Y1007F/Y1008F)
T1 construct: JAK2 (JH1domain-catalytic, Y1007F,Y1008F) kinase was expressed as N-terminal fusion; made in house; host or cells: transiently transfected HEK293 cells
Test: JAK2 JH1 Domain Binding Assay
Conditions: qPCR readout

T1 sequence (O60674 849-1124 Y1007F/Y1008F limits assumed): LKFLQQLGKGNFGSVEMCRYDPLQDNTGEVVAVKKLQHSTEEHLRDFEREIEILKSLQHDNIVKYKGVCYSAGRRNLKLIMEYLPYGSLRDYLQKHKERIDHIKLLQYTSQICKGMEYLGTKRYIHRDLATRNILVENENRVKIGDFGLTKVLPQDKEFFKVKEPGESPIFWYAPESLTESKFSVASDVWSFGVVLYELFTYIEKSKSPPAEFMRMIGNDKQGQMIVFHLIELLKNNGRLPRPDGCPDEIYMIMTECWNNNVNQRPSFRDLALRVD

Row | SMILES | Kd [nM]
1 | CNc1cn2ncc(Oc3cnc4nc(Nc5cc(CN6CC(F)C6)cc(C(F)(F)F)c5)n(C)c4c3Cl)c2cn1 [Example I-358, 7-chloro-N-(3-((3-fluoroazetidin-1-yl)methyl)-5-(trifluoromethyl)phenyl)-1-methyl-6-((6-(methylamino)pyrazolo[1,5-a]pyrazin-3-yl)oxy)-1H-imidazo[4,5-b]pyridin-2-amine] | 50 to 1000
2 | CNc1cn2ncc(Oc3cnc4nc(Nc5cc(CN6CC[C@H](OC)C6)cc(C(F)(F)F)c5)n(C)c4c3Cl)c2cn1 [Example I-307, (S)-7-chloro-N-(3-((3-methoxypyrrolidin-1-yl)methyl)-5-(trifluoromethyl)phenyl)-1-methyl-6-((6-(methylamino)pyrazolo[1,5-a]pyrazin-3-yl)oxy)-1H-imidazo[4,5-b]pyridin-2-amine] | 50 to 1000
3 | CNc1cn2ncc(Oc3cnc4nc(Nc5cc(CN6CCC6)cc(C(F)(F)F)c5)n(C)c4c3Cl)c2cn1 [Example I-357, N-(3-(azetidin-1-ylmethyl)-5-(trifluoromethyl)phenyl)-7-chloro-1-methyl-6-((6-(methylamino)pyrazolo[1,5-a]pyrazin-3-yl)oxy)-1H-imidazo[4,5-b]pyridin-2-amine] | 50 to 1000
4 | COc1c(Oc2cnn3ccncc23)cnc2nc(Nc3cc(C(F)(F)F)cn([C@H]4CC[C@@H]4O)c3=O)n(C)c12 (single isomer, unassigned) [Example I-113-a] | 10 to 50
5 | CNc1nccn2ncc(Oc3cnc4nc(Nc5cc(C(F)(F)F)c(CN(C)C)cc5F)n(C)c4c3Cl)c12 [Example I-235, 7-chloro-N-(4-((dimethylamino)methyl)-2-fluoro-5-(trifluoromethyl)phenyl)-1-methyl-6-((4-(methylamino)pyrazolo[1,5-a]pyrazin-3-yl)oxy)-1H-imidazo[4,5-b]pyridin-2-amine] | 10 to 50
6 | [2H]C([2H])([2H])n1cc(C(F)(F)F)cc(Nc2nc3ncc(Oc4cnn5cc(NC)ncc45)c(Cl)c3n2C)c1=O [Example I-325, 3-((7-chloro-1-methyl-6-((6-(methylamino)pyrazolo[1,5-a]pyrazin-3-yl)oxy)-1H-imidazo[4,5-b]pyridin-2-yl)amino)-1-(methyl-d3)-5-(trifluoromethyl)pyridin-2(1H)-one] | 10 to 50
7 | Cn1c(Nc2cc(C(C)(C)C)n([C@@H]3CCOC3)n2)nc2ncc(Oc3cnn4cnnc4c3)c(Cl)c21 [Example I-15, (R)-6-([1,2,4]triazolo[4,3-b]pyridazin-7-yloxy)-N-(5-(tert-butyl)-1-(tetrahydrofuran-3-yl)-1H-pyrazol-3-yl)-7-chloro-1-methyl-1H-imidazo[4,5-b]pyridin-2-amine] | 50 to 1000
8 | COc1cn2ncc(Oc3cnc4nc(Nc5cc(C(F)(F)F)cn(C)c5=O)n(C)c4c3C#N)c2cn1 [Example I-364, 6-((6-methoxypyrazolo[1,5-a]pyrazin-3-yl)oxy)-1-methyl-2-((1-methyl-2-oxo-5-(trifluoromethyl)-1,2-dihydropyridin-3-yl)amino)-1H-imidazo[4,5-b]pyridine-7-carbonitrile] | 10 to 50
9 | CNc1nccn2ncc(Oc3cnc4nc(Nc5cc(OC6CCN(C)CC6)cc(C(F)(F)F)c5)n(C)c4c3Cl)c12 [Example I-227, 7-chloro-1-methyl-6-((4-(methylamino)pyrazolo[1,5-a]pyrazin-3-yl)oxy)-N-(3-((1-methylpiperidin-4-yl)oxy)-5-(trifluoromethyl)phenyl)-1H-imidazo[4,5-b]pyridin-2-amine] | 10 to 50
10 | Cn1c(Nc2cc(C(C)(C)C#N)n([C@@H]3CCOC3)n2)nc2ncc(Oc3cnc4ccnn4c3)c(Cl)c21 [Example I-18, (R)-2-(3-((7-chloro-1-methyl-6-(pyrazolo[1,5-a]pyrimidin-6-yloxy)-1H-imidazo[4,5-b]pyridin-2-yl)amino)-1-(tetrahydrofuran-3-yl)-1H-pyrazol-5-yl)-2-methylpropanenitrile] | 10 to 50
11 | CNc1nccn2ncc(Oc3cnc4nc(Nc5cc(CN6CC[C@H](N(C)C)C6)cc(C(F)(F)F)c5)n(C)c4c3Cl)c12 [Example I-286, (S)-7-chloro-N-(3-((3-(dimethylamino)pyrrolidin-1-yl)methyl)-5-(trifluoromethyl)phenyl)-1-methyl-6-((4-(methylamino)pyrazolo[1,5-a]pyrazin-3-yl)oxy)-1H-imidazo[4,5-b]pyridin-2-amine] | 10 to 50

Further lines, results first:

Row | Kd [nM] | SMILES
12 | < 10 | Cn1c(Nc2cc(CN3CCC3)cc(C(F)(F)F)c2)nc2ncc(Oc3cnn4ccncc34)c(Cl)c21 [Example I-256, N-(3-(azetidin-1-ylmethyl)-5-(trifluoromethyl)phenyl)-7-chloro-1-methyl-6-(pyrazolo[1,5-a]pyrazin-3-yloxy)-1H-imidazo[4,5-b]pyridin-2-amine]
13 | < 10 | CNc1nccn2ncc(Oc3cnc4nc(Nc5cc(C(F)(F)F)cn([C@H]6CCOC6)c5=O)n(C)c4c3Cl)c12 (single isomer, unassigned) [Example I-262-a]
14 | 10 to 50 | Cn1c(Nc2cc(C(C)(C)C)n([C@H]3COC[C@@H]3O)n2)nc2ncc(Oc3cnn4ccncc34)c(C#N)c21 (single isomer, unassigned) [Example I-150-a]
15 | < 10 | Cn1c(Nc2cc(C(C)(C)C)n([C@H]3C[C@H](O)C3)n2)nc2ncc(Oc3cnn4ccncc34)c(C#N)c21 [Example I-158, trans-2-((5-(tert-butyl)-1-(3-hydroxycyclobutyl)-1H-pyrazol-3-yl)amino)-1-methyl-6-(pyrazolo[1,5-a]pyrazin-3-yloxy)-1H-imidazo[4,5-b]pyridine-7-carbonitrile]
16 | < 10 | COc1c(Oc2cnn3ccccc23)cnc2nc(Nc3cc(C4CC4)cn([C@H]4C[C@H](O)C4)c3=O)n(C)c12 [Example I-111, trans-5-cyclopropyl-1-(3-hydroxycyclobutyl)-3-((7-methoxy-1-methyl-6-(pyrazolo[1,5-a]pyridin-3-yloxy)-1H-imidazo[4,5-b]pyridin-2-yl)amino)pyridin-2(1H)-one]
17 | 10 to 50 | Cn1c(Nc2cc(C(F)(F)C(F)(F)F)n([C@@H]3CCOC3)n2)nc2ncc(Oc3cnc4ccnn4c3)c(Cl)c21 [Example I-7, (R)-7-chloro-1-methyl-N-(5-(perfluoroethyl)-1-(tetrahydrofuran-3-yl)-1H-pyrazol-3-yl)-6-(pyrazolo[1,5-a]pyrimidin-6-yloxy)-1H-imidazo[4,5-b]pyridin-2-amine]
18 | 10 to 50 | Cn1c(Nc2cc(C(C)(C)C)n(C3COC3)n2)nc2ncc(Oc3cnn4ccncc34)c(C#N)c21 [Example I-168, 2-((5-(tert-butyl)-1-(oxetan-3-yl)-1H-pyrazol-3-yl)amino)-1-methyl-6-(pyrazolo[1,5-a]pyrazin-3-yloxy)-1H-imidazo[4,5-b]pyridine-7-carbonitrile]
19 | < 10 | CNc1nccn2ncc(Oc3cnc4nc(Nc5cc(C(F)(F)F)cn([C@H]6CCCOC6)c5=O)n(C)c4c3Cl)c12 (single isomer, unassigned) [Example I-245-a]
20 | < 10 | Cn1cc(C(F)(F)F)cc(Nc2nc3ncc(Oc4cnc5[nH]ccc5c4)c(C#N)c3n2C)c1=O [Example I-265, 6-((1H-pyrrolo[2,3-b]pyridin-5-yl)oxy)-1-methyl-2-((1-methyl-2-oxo-5-(trifluoromethyl)-1,2-dihydropyridin-3-yl)amino)-1H-imidazo[4,5-b]pyridine-7-carbonitrile]
21 | < 10 | Cn1c(Nc2cc(CN3CC(F)C3)cc(C(F)(F)F)c2)nc2ncc(Oc3cnn4ccncc34)c(Cl)c21 [Example I-195, 7-chloro-N-(3-((3-fluoroazetidin-1-yl)methyl)-5-(trifluoromethyl)phenyl)-1-methyl-6-(pyrazolo[1,5-a]pyrazin-3-yloxy)-1H-imidazo[4,5-b]pyridin-2-amine]
22 | < 10 | CN(C)[C@@H]1CCN(Cc2cc(Nc3nc4ncc(Oc5cnn6ccncc56)c(Cl)c4n3C)cc(C(F)(F)F)c2)C1 [Example I-271, (R)-7-chloro-N-(3-((3-(dimethylamino)pyrrolidin-1-yl)methyl)-5-(trifluoromethyl)phenyl)-1-methyl-6-(pyrazolo[1,5-a]pyrazin-3-yloxy)-1H-imidazo[4,5-b]pyridin-2-amine]
23 | < 10 | Cn1c(Nc2cc(C3CC3)cn([C@H]3C[C@H](O)C3)c2=O)nc2ncc(Oc3cnn4ccccc34)c(Cl)c21 [Example I-79, trans-3-((7-chloro-1-methyl-6-(pyrazolo[1,5-a]pyridin-3-yloxy)-1H-imidazo[4,5-b]pyridin-2-yl)amino)-5-cyclopropyl-1-(3-hydroxycyclobutyl)pyridin-2(1H)-one]
24 | < 10 | CNc1cn2ncc(Oc3cnc4nc(Nc5cc(O[C@@H]6CCN(C)C6)cc(C(F)(F)F)c5)n(C)c4c3Cl)c2cn1 [Example I-315, (R)-7-chloro-1-methyl-6-((6-(methylamino)pyrazolo[1,5-a]pyrazin-3-yl)oxy)-N-(3-((1-methylpyrrolidin-3-yl)oxy)-5-(trifluoromethyl)phenyl)-1H-imidazo[4,5-b]pyridin-2-amine]
25 | < 10 | CNc1cn2ncc(Oc3cnc4nc(Nc5cc(C(F)(F)F)n([C@@H]6CCOC6)n5)n(C)c4c3Cl)c2cn1 [Example I-340, (R)-7-chloro-1-methyl-6-((6-(methylamino)pyrazolo[1,5-a]pyrazin-3-yl)oxy)-N-(1-(tetrahydrofuran-3-yl)-5-(trifluoromethyl)-1H-pyrazol-3-yl)-1H-imidazo[4,5-b]pyridin-2-amine]
26 | < 10 | Cn1cc(C(F)(F)F)cc(Nc2nc3ncc(Oc4cnn5ccnc(N[C@@H]6CCOC6)c45)c(Cl)c3n2C)c1=O [Example I-402, (R)-3-((7-chloro-1-methyl-6-((4-((tetrahydrofuran-3-yl)amino)pyrazolo[1,5-a]pyrazin-3-yl)oxy)-1H-imidazo[4,5-b]pyridin-2-yl)amino)-1-methyl-5-(trifluoromethyl)pyridin-2(1H)-one]
27 | < 10 | Cn1c(Nc2cc(C(F)(F)F)cn(-c3cccnc3)c2=O)nc2ncc(Oc3cnn4ccncc34)c(Cl)c21 [Example I-109, 3-((7-chloro-1-methyl-6-(pyrazolo[1,5-a]pyrazin-3-yloxy)-1H-imidazo[4,5-b]pyridin-2-yl)amino)-5-(trifluoromethyl)-2H-[1,3′-bipyridin]-2-one]
